Laboratory results reported in patent US12023330B2, “Use of manzamines as antiproliferative agent” (priority 2020, dated 2024).

Tests used:
[1] = tested on: cervical cancer cell lines (SiHa and CaSki); assay: Cell growth of manzamine-related compounds; format: cell-based, human
Method: (§1) Based on MoIN, the additional manzamine-related compounds such as manzamine D (2), manzamine F (3), 8-hydroxymanzamine A (4), and ircinal A (5) were tested for their biological activities targeting cervical cancer cell lines (SiHa and CaSki).
Cell Growth Kinetics. Cervical cancer cells (1×10^6) or HKc (2×10^5) were plated in 100 mm tissue culture petri dish or 6-well plates. Following overnight incubation, cells were treated with 2 μM or 4 μM concentrations of manzamine A (1) derivatives for different time points (24, 48 and 72 hours). Dimethyl sulphoxide (DMSO) was used as control. The cell proliferation activity was determined by cell counting under the microscope with a hemocytometer using trypan blue staining.

[2] = tested on: normal human keratinocytes (HKc); assay: Cell growth kinetics of normal keratinocytes; format: cell-based; details: 4 μM stated for compound 4; 48 h and 72 h; vs DMSO control
Method: as §1
Generation of Normal Human Keratinocytes (HKc). The generation and processing of normal HKc from de-identified foreskin tissue samples has previously been described in our studies, see Pirisi, L.; Yasumoto, S.; Feller, M.; Doniger, J.; DiPaolo, J. A. J. Virol. 1987, 61, 1061-1066, and was implemented with the following modifications: dispase was used in lieu of collagenase, and a trypsinization step was added to release the epidermal cells. Briefly, to generate normal HKc primary cultures, the foreskin tissue, free of subcutaneous tissue, was placed in 10% dispase in phosphate buffer saline (PBS) and incubated overnight at 37° C. The next day, the epidermis was separated from the dermis, and processed mechanically by shredding the tissue into smaller pieces that were then treated with Trypsin/EDTA for 10 minutes at 37° C. Following the addition of fetal bovine serum (10%) to stop the trypsin action, cells were collected by centrifugation and plated in keratinocytes serum free medium (KSFM).
Cell Growth Kinetics. […] The cell proliferation activity was determined by cell counting under the microscope with a hemocytometer using trypan blue staining.

SMILES | effect on cervical cancer cell growth [1] | cell growth kinetics of normal HKc [2]
O=CC1=C[C@@]2(O)CC/C=C\CCCCN3CC[C@@H]1[C@]1(CC4/C=C\CCCCN4[C@H]12)C3 (some centres unmarked) [ircinal A] | did not reveal any effect | 
Oc1cccc2c1[nH]c1c(C3=C[C@@]4(O)CC/C=C\CCCCN5CC[C@@H]3[C@]3(C[C@@H]6/C=C\CCCCN6[C@H]34)C5)nccc12 [8-hydroxymanzamine A] | showed inhibition | inhibited significantly
O[C@]12C=C(C3NCCc4c3[nH]c3ccccc43)[C@@H]3CCN(CCCC/C=C\CC1)C[C@@]31C[C@@H]3/C=C\CCCCN3[C@H]12 (some centres unmarked) [manzamine D] | did not reveal any effect | 
O=C1CCCN2[C@@H](CC1)C[C@]13CN4CCCC/C=C\CC[C@](O)(C=C(c5nccc6c5[nH]c5c(O)cccc56)C1CC4)[C@H]23 (some centres unmarked) [manzamine F] | did not reveal any effect | 
